Reference: patent US5358951A, “Angiotensin II receptor blocking 2, 3, 6 substituted quinazolinones” (American Cyanamid Company, priority 1993, dated 1994)

System: vasopressor response of angiotensin II
Assay: AII Challenge: antagonism of angiotensin II vasopressor response;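 for Response Average Change: post-dose Angiotensin II-evoked rise in systolic blood pressure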
Type: in vivo
Details: for inhibition in vivo at 3 mg/kg / inhibition in vivo at 10 mg/kg: Rattus norvegicus, iv
Description: Conscious Male Okamoto-Aoki SHR, 16-20 weeks old, weighing approximately 330 g are purchased from Charles River Labs (Wilmington, Mass.). Conscious rats are restrained in a supine position with elastic tape. The area at the base of the tail is locally anesthetized by subcutaneous infiltration with 2% procaine. The ventral caudal artery and vein are isolated, and a cannula made of polyethylene (PE) 10-20 tubing (fused together by heat) is passed into the lower abdominal aorta and vena cava, respectively. The cannula is secured, heparinized (1,000 I.U./ml), sealed and the wound is closed. The animals are placed in plastic restraining cages in an upright position. The cannula is attached to a Statham P23 Db pressure transducer, and pulsatile blood pressure is recorded to 10-15 minutes with a Gould Brush recorder. (Chan et al., (Drug Development Res., 18:75-94, 1989). Angiotensin II (human sequence, Sigma Chem. Co., St. Louis, Mo.) of 0.05 and 0.1 ug/kg i.v. is injected into all rats (predosing response). Then a test compound, vehicle or a known angiotensin II antagonist is administered i.v., i.p. or orally to each set of rats. The two doses of angiotensin II are given to each rat again at 30, 60, 90, 120, 180, 240 and 300 minutes post dosing the compound or vehicle. The vasopressor response of angiotensin II is measured for the increase in systolic blood pressure in mmHg. The percentage of antagonism or blockade of the vasopressor response of angiotensin II by a compound is calculated using the vasopressor response (increase in systolic blood pressure) of angiotensin II of each rat predosing the compound as 100%.

CCCCc1nc2ccc([C@@H]3C[C@H]4CCCCN4O3)cc2c(=O)n1Cc1ccc(-c2ccccc2-c2nnn[nH]2)cc1 (relative stereo) [Example 60, (Cis)-2-Butyl-6-(hexahydro-2H-isoxazolo[2,3-a]pyridin-2-yl)-3-[[2'-(1H-tetrazol-5-yl)-[1,1'-biphenyl]-4-yl]methyl]-4(3H)-quinazolinone]
Response Average Change (3 mg/kg I.V., AII 0.05 mcg/kg IV, 240 min post dose): 15 mmHg | Response Average Change (3 mg/kg I.V., AII 0.05 mcg/kg IV, 300 min post dose): 15 mmHg | Response Average Change (3 mg/kg I.V., AII 0.1 mcg/kg IV, 240 min post dose): 18.5 mmHg | Response Average Change (3 mg/kg I.V., AII 0.1 mcg/kg IV, 300 min post dose): 30 mmHg | Response Average Change (10 mg/kg I.V., AII 0.05 mcg/kg IV, 30 min post dose): 0 mmHg | Response Average Change (10 mg/kg I.V., AII 0.05 mcg/kg IV, 60 min post dose): 7.5 mmHg | Response Average Change (10 mg/kg I.V., AII 0.05 mcg/kg IV, 90 min post dose): 14 mmHg | Response Average Change (10 mg/kg I.V., AII 0.05 mcg/kg IV, 120 min post dose): 9.5 mmHg | Response Average Change (10 mg/kg I.V., AII 0.05 mcg/kg IV, 180 min post dose): 12.5 mmHg | Response Average Change (10 mg/kg I.V., AII 0.05 mcg/kg IV, 240 min post dose): 17 mmHg | Response Average Change (10 mg/kg I.V., AII 0.05 mcg/kg IV, 300 min post dose): 12.5 mmHg | Response Average Change (10 mg/kg I.V., AII 0.1 mcg/kg IV, 30 min post dose): 0 mmHg | Response Average Change (10 mg/kg I.V., AII 0.1 mcg/kg IV, 60 min post dose): 7.5 mmHg | Response Average Change (10 mg/kg I.V., AII 0.1 mcg/kg IV, 90 min post dose): 15 mmHg | Response Average Change (10 mg/kg I.V., AII 0.1 mcg/kg IV, 120 min post dose): 12.5 mmHg | Response Average Change (10 mg/kg I.V., AII 0.1 mcg/kg IV, 180 min post dose): 21.5 mmHg | Response Average Change (10 mg/kg I.V., AII 0.1 mcg/kg IV, 240 min post dose): 12.5 mmHg | Response Average Change (10 mg/kg I.V., AII 0.1 mcg/kg IV, 300 min post dose): 22.5 mmHg | inhibition in vivo at 3 mg/kg (0.5 h, 3 mg/kg I.V., AII 0.05 mcg/kg IV, 30 min post dose): 80% | inhibition in vivo at 3 mg/kg (0.5 h, 3 mg/kg I.V., AII 0.1 mcg/kg IV, 30 min post dose): 69% | inhibition in vivo at 10 mg/kg (0.5 h, 10 mg/kg I.V., AII 0.05 mcg/kg IV, 30 min post dose): 100% | inhibition in vivo at 10 mg/kg (0.5 h, 10 mg/kg I.V., AII 0.1 mcg/kg IV, 30 min post dose): 100% | inhibition in vivo at 3 mg/kg (1 h, 3 mg/kg I.V., AII 0.05 mcg/kg IV, 60 min post dose): 73% | inhibition in vivo at 3 mg/kg (1 h, 3 mg/kg I.V., AII 0.1 mcg/kg IV, 60 min post dose): 79% | inhibition in vivo at 10 mg/kg (1 h, 10 mg/kg I.V., AII 0.05 mcg/kg IV, 60 min post dose): 82% | inhibition in vivo at 10 mg/kg (1 h, 10 mg/kg I.V., AII 0.1 mcg/kg IV, 60 min post dose): 85% | inhibition in vivo at 3 mg/kg (2 h, 3 mg/kg I.V., AII 0.05 mcg/kg IV, 120 min post dose): 73% | inhibition in vivo at 3 mg/kg (2 h, 3 mg/kg I.V., AII 0.1 mcg/kg IV, 120 min post dose): 56% | inhibition in vivo at 10 mg/kg (2 h, 10 mg/kg I.V., AII 0.05 mcg/kg IV, 120 min post dose): 77% | inhibition in vivo at 10 mg/kg (2 h, 10 mg/kg I.V., AII 0.1 mcg/kg IV, 120 min post dose): 74% | inhibition in vivo at 3 mg/kg (3 h, 3 mg/kg I.V., AII 0.1 mcg/kg IV, 180 min post dose): 44% | inhibition in vivo at 10 mg/kg (3 h, 10 mg/kg I.V., AII 0.05 mcg/kg IV, 180 min post dose): 70% | inhibition in vivo at 10 mg/kg (3 h, 10 mg/kg I.V., AII 0.1 mcg/kg IV, 180 min post dose): 56% | inhibition in vivo at 3 mg/kg (4 h, 3 mg/kg I.V., AII 0.05 mcg/kg IV, 240 min post dose): 59% | inhibition in vivo at 3 mg/kg (4 h, 3 mg/kg I.V., AII 0.1 mcg/kg IV, 240 min post dose): 49% | inhibition in vivo at 10 mg/kg (4 h, 10 mg/kg I.V., AII 0.05 mcg/kg IV, 240 min post dose): 59% | inhibition in vivo at 10 mg/kg (4 h, 10 mg/kg I.V., AII 0.1 mcg/kg IV, 240 min post dose): 74% | inhibition in vivo at 3 mg/kg (5 h, 3 mg/kg I.V., AII 0.05 mcg/kg IV, 300 min post dose): 59% | inhibition in vivo at 3 mg/kg (5 h, 3 mg/kg I.V., AII 0.1 mcg/kg IV, 300 min post dose): 18% | inhibition in vivo at 10 mg/kg (5 h, 10 mg/kg I.V., AII 0.05 mcg/kg IV, 300 min post dose): 70% | inhibition in vivo at 10 mg/kg (5 h, 10 mg/kg I.V., AII 0.1 mcg/kg IV, 300 min post dose): 54% | inhibition in vivo at 3 mg/kg ([…], 3 mg/kg I.V., AII 0.05 mcg/kg IV, 90 min post dose): 73% | inhibition in vivo at 10 mg/kg ([…], 10 mg/kg I.V., AII 0.05 mcg/kg IV, 90 min post dose): 66% | inhibition in vivo at 10 mg/kg ([…], 10 mg/kg I.V., AII 0.1 mcg/kg IV, 90 min post dose): 69%
